Results reported in patent publication US20090281174A1, “SENESCENCE INHIBITOR” (KAO CORPORATION, priority 2006, published 2009).

Test system: SAM-P1 male mice (mice of senescence-accelerated model)
Assay: Maximum force of soleus muscle under electrical stimulation in senescence-accelerated mice
Assay type: in vivo, mouse
Settings: after breeding for 9 weeks
Description: Thereafter, these mice were divided into the following groups (eight mice in each group): […] The mice of each group were subjected to a physical exercise at 10 m/min for 3 minutes in a running-water pool five times a day and four days a week. After breeding for nine weeks, a soleus muscle was removed from a mouse of each group through dissection and fixed to a transducer (FORT100, product of World Precision Instruments, Inc.) in Krebs solution of 37° C. (aeration: 95%-oxygen, 5%-carbon dioxide). Subsequently, under electrical stimulation (0.5 msec, 140 Hz), the maximum muscle force of the muscle sample was determined.

## CC(C)C[C@H](N)C(=O)O [leucine, Leucine]
Dunnet test
  Maximum soleus muscle force compared with SAM-P1 control group: No significant difference
Soleus muscle, electrical stimulation 0.5 msec 140 Hz, diet 0.35% of each ingredient
  Maximum muscle force: 11.1 ± 0.7 g
